Assay results taken from ChEMBL document CHEMBL4251642 (Eur J Med Chem, 2018).
The source made the active and inactive calls. The calls are words filed in the database; no cut-off is given here.

Experiments:
Influenza A virus [1] = experiment: Antiviral activity against Influenza A virus (A/WSN/1933(H1N1)) harboring neuraminidase H275Y mutant infected in MDCK cells assessed as inhibition of virus-induced cytopathic effect after 48 hrs by CellTiter96 Aqueous non-radioactive cell proliferation assay; format: functional, organism-based
Influenza A virus [2] = experiment: Antiviral activity against Influenza A virus (A/WSN/1933(H1N1)) harboring neuraminidase H275Y mutant infected in BALB/c mouse assessed as mouse survival at 0.96 umol/day, po for 5 consecutive days measured on day 14 post dose; format: functional
Mus musculus = experiment: Toxicity in BALB/c mouse infected with Influenza A virus (A/WSN/1933(H1N1)) harboring neuraminidase H275Y mutant assessed as change in body weight at 0.96 umol/day, po for 5 consecutive days; format: organism-based; conditions: in vivo
Influenza A virus [3] = experiment: Antiviral activity against Influenza A virus (A/WSN/1933(H1N1)) harboring neuraminidase H275Y mutant infected in BALB/c mouse assessed as recovery of mouse weight at 0.96 umol/day, po for 5 consecutive days measured on day 14 post dose; format: functional, organism-based
Influenza A virus [4] = experiment: Antiviral activity against Influenza A virus (A/WSN/1933(H1N1)) harboring neuraminidase H275Y mutant infected in BALB/c mouse assessed as mouse survival at 0.96 umol/day, po for 5 consecutive days measured on day 10 post dose; format: functional

| SMILES | EC50 (Influenza A virus [1]) [nM] | Activity (Influenza A virus [2]) | Activity (Mus musculus) | Activity (Influenza A virus [3]) | Survival (Influenza A virus [4]) [%] | Survival (Influenza A virus [2]) [%] |
| --- | --- | --- | --- | --- | --- | --- |
| CCC(CC)[C@H](NC(C)=O)[C@@H]1[C@H](OC(=O)NCCCN)[C@@H](C(=O)O)C[C@H]1NC(=N)N | 405 | – | – | – | – | – |
| CCC(CC)[C@H](NC(C)=O)[C@@H]1[C@H](OC(=O)NCCCOC(=O)/C=C/c2ccc(O)c(O)c2)[C@@H](C(=O)O)C[C@H]1NC(=N)N | 15.5 | Active | Non-Toxic | Active | – | – |
| CCC(CC)[C@H](NC(C)=O)[C@@H]1[C@H](OC(=O)NCCCO)[C@@H](C(=O)O)C[C@H]1NC(=N)N | 1010 | – | – | – | – | – |
| CCOC(=O)C1=C[C@@H](OC(CC)CC)[C@H](NC(C)=O)[C@@H](N)C1 [OSELTAMIVIR] | – | – | – | – | 20 | – |
| CCC(CC)[C@H](NC(C)=O)[C@@H]1[C@H](O)[C@@H](C(=O)O)C[C@H]1NC(=N)N [PERAMIVIR ANHYDROUS] | 643 | – | – | – | – | – |
| CCC(CC)[C@H](NC(C)=O)[C@@H]1[C@H](OC(=O)NCCCNC(=O)/C=C/c2ccc(O)c(O)c2)[C@@H](C(=O)O)C[C@H]1NC(=N)N | 18.1 | – | Non-Toxic | Active | – | 90 |
| CCC(CC)[C@H](NC(C)=O)[C@@H]1[C@H](OC(=O)NCCCOCCCc2ccc(O)c(O)c2)[C@@H](C(=O)O)C[C@H]1NC(=N)N | 71.6 | Active | Non-Toxic | Active | – | – |
| CCC(CC)OC1C=C(C(=O)O)C[C@H](N)[C@H]1NC(C)=O (some centres not stated) | 3520 | – | – | – | – | – |
